Experimental data reported in ChEMBL document CHEMBL1133209, “Synthesis and SAR of benzyl and phenoxymethylene oxadiazole benzenesulfonamides as selective beta3 adrenergic receptor agonist antiobesity agents” (Bioorg Med Chem Lett, 2000).

system: not listed separately; experiment: Half life was determined; assay type: ADME, organism-based, Canis lupus familiaris; details: dog, in vivo

Compound | half-life
O=S(=O)(Nc1ccc(CCNC[C@H](O)c2cccnc2)cc1)c1ccc(-c2noc(Cc3ccc(F)c(F)c3)n2)cc1 | 3.4 h
O=S(=O)(Nc1ccc(CCNC[C@H](O)c2cccnc2)cc1)c1ccc(-c2noc(Cc3ccc(OC(F)(F)F)cc3)n2)cc1 | 3.8 h

system: not listed separately; experiment: The compound was tested for bioavailability in dogs; assay type: ADME, organism-based, Canis lupus familiaris; details: dog, in vivo

Compound | bioavailability
O=S(=O)(Nc1ccc(CCNC[C@H](O)c2cccnc2)cc1)c1ccc(-c2noc(Cc3ccc(F)c(F)c3)n2)cc1 | 54%

system: not listed separately; experiment: The compound was tested for oral bioavailability in dogs; assay type: ADME, organism-based, Canis lupus familiaris; details: dog, in vivo

Compound | bioavailability
O=S(=O)(Nc1ccc(CCNC[C@H](O)c2cccnc2)cc1)c1ccc(-c2noc(Cc3ccc(OC(F)(F)F)cc3)n2)cc1 | 30%

target: Beta-2 adrenergic receptor (Homo sapiens, UniProt P07550); experiment: Binding affinity to recombinant human beta-2 adrenergic receptor prepared from CHO cells in the presence of [125I]iodocyanopindolol; assay type: cell-based; details: not given
Sequence (P07550 whole entry): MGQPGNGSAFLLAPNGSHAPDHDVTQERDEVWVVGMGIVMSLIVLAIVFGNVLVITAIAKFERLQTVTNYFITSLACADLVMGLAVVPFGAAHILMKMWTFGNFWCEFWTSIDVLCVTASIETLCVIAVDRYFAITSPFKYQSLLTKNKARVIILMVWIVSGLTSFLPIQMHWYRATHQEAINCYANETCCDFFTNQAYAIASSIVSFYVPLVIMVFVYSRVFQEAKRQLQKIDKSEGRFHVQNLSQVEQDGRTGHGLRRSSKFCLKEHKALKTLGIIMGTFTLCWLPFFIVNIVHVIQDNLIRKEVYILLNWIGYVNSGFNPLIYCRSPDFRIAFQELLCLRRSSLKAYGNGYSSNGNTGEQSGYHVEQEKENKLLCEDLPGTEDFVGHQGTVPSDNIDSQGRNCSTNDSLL

Compound | IC50
CC(=O)Nc1ccc(Cc2nc(-c3ccc(S(=O)(=O)Nc4ccc(CCNC[C@H](O)c5cccnc5)cc4)cc3)no2)cc1 | 5 µM
O=S(=O)(Nc1ccc(CCNC[C@H](O)c2cccnc2)cc1)c1ccc(-c2noc(C(O)c3ccc(F)cc3)n2)cc1 (stereo partly specified) | 2.5 µM
COC(=O)NC(c1ccc(F)cc1)c1nc(-c2ccc(S(=O)(=O)Nc3ccc(CCNC[C@H](O)c4cccnc4)cc3)cc2)no1 (stereo partly specified) | 5.4 µM
CSc1ccc(Cc2nc(-c3ccc(S(=O)(=O)Nc4ccc(CCNC[C@H](O)c5cccnc5)cc4)cc3)no2)cc1 | 9.5 µM
O=S(=O)(Nc1ccc(CCNC[C@H](O)c2cccnc2)cc1)c1ccc(-c2noc(COc3ccccc3O)n2)cc1 | 2.5 µM
O=S(=O)(Nc1ccc(CCNC[C@H](O)c2cccnc2)cc1)c1ccc(-c2noc(COc3ccc(C4N=NN=N4)cc3)n2)cc1 | 8 µM
CNC(=O)NC(c1ccc(F)cc1)c1nc(-c2ccc(S(=O)(=O)Nc3ccc(CCNC[C@H](O)c4cccnc4)cc3)cc2)no1 (stereo partly specified) | 1.5 µM
O=S(=O)(Nc1ccc(CCNC[C@H](O)c2cccnc2)cc1)c1ccc(-c2noc(Cc3cccc(F)c3)n2)cc1 | 0.695 µM
O=S(=O)(Nc1ccc(CCNC[C@H](O)c2cccnc2)cc1)c1ccc(-c2noc(Cc3cc(F)c(F)c(F)c3)n2)cc1 | 0.72 µM
O=C(c1ccc(F)cc1)c1nc(-c2ccc(S(=O)(=O)Nc3ccc(CCNC[C@H](O)c4cccnc4)cc3)cc2)no1 | 15 µM
O=S(=O)(Nc1ccc(CCNC[C@H](O)c2cccnc2)cc1)c1ccc(-c2noc(COc3ccc(F)cc3)n2)cc1 | 0.49 µM
O=S(=O)(Nc1ccc(CCNC[C@H](O)c2cccnc2)cc1)c1ccc(-c2noc(Cc3ccc(F)c(F)c3)n2)cc1 | 0.98 µM
O=S(=O)(Nc1ccc(CCNC[C@H](O)c2cccnc2)cc1)c1ccc(-c2noc(Cc3ccc4ccccc4c3)n2)cc1 | 1.5 µM
COc1ccc(OCc2nc(-c3ccc(S(=O)(=O)Nc4ccc(CCNC[C@H](O)c5cccnc5)cc4)cc3)no2)cc1 | 5 µM
O=S(=O)(Nc1ccc(CCNC[C@H](O)c2cccnc2)cc1)c1ccc(-c2noc(Cc3ccc(OC(F)(F)F)cc3)n2)cc1 | 7.6 µM

target: T1, Beta-3 adrenergic receptor (Homo sapiens, UniProt P13945); experiment: Stimulation of cAMP levels in CHO cells expressing the recombinant human beta-3 adrenergic receptor; assay type: functional, cell-based; details: not given
Target sequence in this assay (P13945 whole entry): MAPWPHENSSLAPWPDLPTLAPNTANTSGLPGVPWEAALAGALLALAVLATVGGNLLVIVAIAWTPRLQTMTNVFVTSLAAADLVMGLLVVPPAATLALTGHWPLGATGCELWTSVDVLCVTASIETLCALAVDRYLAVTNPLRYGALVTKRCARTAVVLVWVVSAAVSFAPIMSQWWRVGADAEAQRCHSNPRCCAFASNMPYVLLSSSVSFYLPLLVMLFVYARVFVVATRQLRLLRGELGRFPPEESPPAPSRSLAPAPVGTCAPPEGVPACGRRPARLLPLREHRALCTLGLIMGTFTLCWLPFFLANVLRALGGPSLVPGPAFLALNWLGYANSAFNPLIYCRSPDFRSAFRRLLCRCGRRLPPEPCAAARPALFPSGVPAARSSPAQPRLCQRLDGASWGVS

Compound | EC50
CC(=O)Nc1ccc(Cc2nc(-c3ccc(S(=O)(=O)Nc4ccc(CCNC[C@H](O)c5cccnc5)cc4)cc3)no2)cc1 | 0.19 µM
O=S(=O)(Nc1ccc(CCNC[C@H](O)c2cccnc2)cc1)c1ccc(-c2noc(C(O)c3ccc(F)cc3)n2)cc1 (stereo partly specified) | 0.008 µM
COC(=O)NC(c1ccc(F)cc1)c1nc(-c2ccc(S(=O)(=O)Nc3ccc(CCNC[C@H](O)c4cccnc4)cc3)cc2)no1 (stereo partly specified) | 0.01 µM
CSc1ccc(Cc2nc(-c3ccc(S(=O)(=O)Nc4ccc(CCNC[C@H](O)c5cccnc5)cc4)cc3)no2)cc1 | 0.003 µM
O=S(=O)(Nc1ccc(CCNC[C@H](O)c2cccnc2)cc1)c1ccc(-c2noc(COc3ccccc3O)n2)cc1 | 0.006 µM
O=S(=O)(Nc1ccc(CCNC[C@H](O)c2cccnc2)cc1)c1ccc(-c2noc(COc3ccc(C4N=NN=N4)cc3)n2)cc1 | 0.064 µM
CNC(=O)NC(c1ccc(F)cc1)c1nc(-c2ccc(S(=O)(=O)Nc3ccc(CCNC[C@H](O)c4cccnc4)cc3)cc2)no1 (stereo partly specified) | 0.003 µM
O=S(=O)(Nc1ccc(CCNC[C@H](O)c2cccnc2)cc1)c1ccc(-c2noc(Cc3cccc(F)c3)n2)cc1 | 0.012 µM
O=S(=O)(Nc1ccc(CCNC[C@H](O)c2cccnc2)cc1)c1ccc(-c2noc(Cc3cc(F)c(F)c(F)c3)n2)cc1 | 0.002 µM
O=C(c1ccc(F)cc1)c1nc(-c2ccc(S(=O)(=O)Nc3ccc(CCNC[C@H](O)c4cccnc4)cc3)cc2)no1 | 0.01 µM
O=S(=O)(Nc1ccc(CCNC[C@H](O)c2cccnc2)cc1)c1ccc(-c2noc(COc3ccc(F)cc3)n2)cc1 | 0.004 µM
O=S(=O)(Nc1ccc(CCNC[C@H](O)c2cccnc2)cc1)c1ccc(-c2noc(Cc3ccc(F)c(F)c3)n2)cc1 | 0.006 µM
O=S(=O)(Nc1ccc(CCNC[C@H](O)c2cccnc2)cc1)c1ccc(-c2noc(Cc3ccc4ccccc4c3)n2)cc1 | 0.005 µM
COc1ccc(OCc2nc(-c3ccc(S(=O)(=O)Nc4ccc(CCNC[C@H](O)c5cccnc5)cc4)cc3)no2)cc1 | 0.006 µM
O=S(=O)(Nc1ccc(CCNC[C@H](O)c2cccnc2)cc1)c1ccc(-c2noc(Cc3ccc(OC(F)(F)F)cc3)n2)cc1 | 0.008 µM

target: T1, Beta-3 adrenergic receptor; experiment: Adenylyl cyclase activation given as % of the maximal stimulation with isoproterenol in CHO cells expressing recombinant human beta-3 adrenergic receptor; assay type: functional, cell-based; details: not given
Target sequence in this assay (P13945 whole entry, looked up): as the sequence (P13945 whole entry) above

Compound | Activation
CC(=O)Nc1ccc(Cc2nc(-c3ccc(S(=O)(=O)Nc4ccc(CCNC[C@H](O)c5cccnc5)cc4)cc3)no2)cc1 | 98%
O=S(=O)(Nc1ccc(CCNC[C@H](O)c2cccnc2)cc1)c1ccc(-c2noc(C(O)c3ccc(F)cc3)n2)cc1 (stereo partly specified) | 56%
COC(=O)NC(c1ccc(F)cc1)c1nc(-c2ccc(S(=O)(=O)Nc3ccc(CCNC[C@H](O)c4cccnc4)cc3)cc2)no1 (stereo partly specified) | 80%
CSc1ccc(Cc2nc(-c3ccc(S(=O)(=O)Nc4ccc(CCNC[C@H](O)c5cccnc5)cc4)cc3)no2)cc1 | 74%
O=S(=O)(Nc1ccc(CCNC[C@H](O)c2cccnc2)cc1)c1ccc(-c2noc(COc3ccccc3O)n2)cc1 | 71%
O=S(=O)(Nc1ccc(CCNC[C@H](O)c2cccnc2)cc1)c1ccc(-c2noc(COc3ccc(C4N=NN=N4)cc3)n2)cc1 | 79%
CNC(=O)NC(c1ccc(F)cc1)c1nc(-c2ccc(S(=O)(=O)Nc3ccc(CCNC[C@H](O)c4cccnc4)cc3)cc2)no1 (stereo partly specified) | 67%
O=S(=O)(Nc1ccc(CCNC[C@H](O)c2cccnc2)cc1)c1ccc(-c2noc(Cc3cccc(F)c3)n2)cc1 | 93%
O=S(=O)(Nc1ccc(CCNC[C@H](O)c2cccnc2)cc1)c1ccc(-c2noc(Cc3cc(F)c(F)c(F)c3)n2)cc1 | 87%
O=C(c1ccc(F)cc1)c1nc(-c2ccc(S(=O)(=O)Nc3ccc(CCNC[C@H](O)c4cccnc4)cc3)cc2)no1 | 87%
O=S(=O)(Nc1ccc(CCNC[C@H](O)c2cccnc2)cc1)c1ccc(-c2noc(COc3ccc(F)cc3)n2)cc1 | 82%
O=S(=O)(Nc1ccc(CCNC[C@H](O)c2cccnc2)cc1)c1ccc(-c2noc(Cc3ccc(F)c(F)c3)n2)cc1 | 61%
O=S(=O)(Nc1ccc(CCNC[C@H](O)c2cccnc2)cc1)c1ccc(-c2noc(Cc3ccc4ccccc4c3)n2)cc1 | 73%
COc1ccc(OCc2nc(-c3ccc(S(=O)(=O)Nc4ccc(CCNC[C@H](O)c5cccnc5)cc4)cc3)no2)cc1 | 86%
O=S(=O)(Nc1ccc(CCNC[C@H](O)c2cccnc2)cc1)c1ccc(-c2noc(Cc3ccc(OC(F)(F)F)cc3)n2)cc1 | 90%

target: Beta-1 adrenergic receptor (Homo sapiens, UniProt P08588); experiment: Binding affinity to recombinant human beta-1 adrenergic receptor expressed in CHO cells in the presence of [125I]iodocyanopindolol; assay type: cell-based; details: not given
Sequence (P08588 whole entry): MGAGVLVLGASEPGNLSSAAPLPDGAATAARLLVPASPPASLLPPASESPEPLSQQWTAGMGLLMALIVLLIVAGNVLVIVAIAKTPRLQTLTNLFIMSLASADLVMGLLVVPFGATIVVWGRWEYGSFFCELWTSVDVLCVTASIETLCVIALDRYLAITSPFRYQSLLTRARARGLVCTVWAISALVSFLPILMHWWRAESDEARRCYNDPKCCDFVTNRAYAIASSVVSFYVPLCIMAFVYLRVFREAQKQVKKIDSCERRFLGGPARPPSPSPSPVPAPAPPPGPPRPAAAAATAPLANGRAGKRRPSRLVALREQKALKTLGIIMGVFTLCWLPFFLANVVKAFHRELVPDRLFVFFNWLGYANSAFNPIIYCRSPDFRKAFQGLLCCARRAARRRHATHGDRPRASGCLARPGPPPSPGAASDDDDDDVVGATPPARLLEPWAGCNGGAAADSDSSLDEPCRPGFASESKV

Compound | IC50
CC(=O)Nc1ccc(Cc2nc(-c3ccc(S(=O)(=O)Nc4ccc(CCNC[C@H](O)c5cccnc5)cc4)cc3)no2)cc1 | 3 µM
O=S(=O)(Nc1ccc(CCNC[C@H](O)c2cccnc2)cc1)c1ccc(-c2noc(C(O)c3ccc(F)cc3)n2)cc1 (stereo partly specified) | 65 µM
COC(=O)NC(c1ccc(F)cc1)c1nc(-c2ccc(S(=O)(=O)Nc3ccc(CCNC[C@H](O)c4cccnc4)cc3)cc2)no1 (stereo partly specified) | 2.6 µM
CSc1ccc(Cc2nc(-c3ccc(S(=O)(=O)Nc4ccc(CCNC[C@H](O)c5cccnc5)cc4)cc3)no2)cc1 | 16 µM
O=S(=O)(Nc1ccc(CCNC[C@H](O)c2cccnc2)cc1)c1ccc(-c2noc(COc3ccccc3O)n2)cc1 | 8 µM
O=S(=O)(Nc1ccc(CCNC[C@H](O)c2cccnc2)cc1)c1ccc(-c2noc(COc3ccc(C4N=NN=N4)cc3)n2)cc1 | 9 µM
CNC(=O)NC(c1ccc(F)cc1)c1nc(-c2ccc(S(=O)(=O)Nc3ccc(CCNC[C@H](O)c4cccnc4)cc3)cc2)no1 (stereo partly specified) | 4.5 µM
O=S(=O)(Nc1ccc(CCNC[C@H](O)c2cccnc2)cc1)c1ccc(-c2noc(Cc3cccc(F)c3)n2)cc1 | 5 µM
O=S(=O)(Nc1ccc(CCNC[C@H](O)c2cccnc2)cc1)c1ccc(-c2noc(Cc3cc(F)c(F)c(F)c3)n2)cc1 | 3 µM
O=C(c1ccc(F)cc1)c1nc(-c2ccc(S(=O)(=O)Nc3ccc(CCNC[C@H](O)c4cccnc4)cc3)cc2)no1 | 2.43 µM
O=S(=O)(Nc1ccc(CCNC[C@H](O)c2cccnc2)cc1)c1ccc(-c2noc(COc3ccc(F)cc3)n2)cc1 | 0.715 µM
O=S(=O)(Nc1ccc(CCNC[C@H](O)c2cccnc2)cc1)c1ccc(-c2noc(Cc3ccc(F)c(F)c3)n2)cc1 | 2.3 µM
O=S(=O)(Nc1ccc(CCNC[C@H](O)c2cccnc2)cc1)c1ccc(-c2noc(Cc3ccc4ccccc4c3)n2)cc1 | 0.55 µM
COc1ccc(OCc2nc(-c3ccc(S(=O)(=O)Nc4ccc(CCNC[C@H](O)c5cccnc5)cc4)cc3)no2)cc1 | 2 µM
O=S(=O)(Nc1ccc(CCNC[C@H](O)c2cccnc2)cc1)c1ccc(-c2noc(Cc3ccc(OC(F)(F)F)cc3)n2)cc1 | 1.29 µM

system: Monkey; experiment: The compound was evaluated for dose- dependent glycerolemia in anesthetized rhesus monkey; assay type: functional; details: Cercopithecidae, in Macaca mulatta

Compound | ED50
O=S(=O)(Nc1ccc(CCNC[C@H](O)c2cccnc2)cc1)c1ccc(-c2noc(Cc3ccc(OC(F)(F)F)cc3)n2)cc1 | 0.15 mg/kg

system: Monkey; experiment: The compound was tested for the percent increase in heart rate at the dose level of 10 mg/kg; assay type: functional, Cercopithecidae; details: not given

Compound | Increase
O=S(=O)(Nc1ccc(CCNC[C@H](O)c2cccnc2)cc1)c1ccc(-c2noc(Cc3ccc(OC(F)(F)F)cc3)n2)cc1 | 15%
